Consider 55 compounds from BindingDB's records for doi:10.1021/jm00356a028 (1983).

SMILES strings stand for the structures. Some results are limits rather than exact numbers.

The nature of this assay: Inhibition of HSV-1 DNA polymerase in HSV-1 C42 plaque reduction assay.
The compound `COC(=O)P(=O)(OC(C)C)OC(C)C` [methyl diisopropoxyphosphinecarboxylate oxide] registered an IC50 above 500 µM. Take `COP(=O)(OC)C(=O)OCC1CCCC1` [cyclopentylmethyl dimethoxyphosphinecarboxylate oxide]: the IC50 was above 500 µM. As to `CCOP(=O)(Oc1ccc(OC)cc1)C(=O)Oc1ccccc1` (stereo not given) [phenyl (4-methoxyphenoxy)(ethoxy)phosphinecarboxylate oxide], the IC50 was 97 µM. In the case of `CCOP(=O)(Oc1c(C)cccc1C)C(=O)OC` (stereo not given) [methyl (2,6-dimethylphenoxy)(ethoxy)phosphinecarboxylate oxide] it was above 500 µM; in that of `CCOC(=O)P(=O)(O)Oc1ccccc1` [sodium phenyl ethoxycarbonylphosphonate], above 500 µM; in that of `COC(=O)P(=O)(OC)Oc1ccc(C(C)=O)cc1` (stereo not given) [methyl (4-acetylphenoxy)(methoxy)phosphinecarboxylate oxide], above 500 µM. `Cc1ccc(OP(=O)(Oc2ccc(C)cc2)C(=O)Oc2ccccc2)cc1` [phenyl bis(4-methylphenoxy)phosphinecarboxylate oxide] showed a half-inhibitory concentration (IC50) of 44 µM. As to `CCOC(=O)P(=O)(O)O` [disodium ethoxycarbonylphosphonate], the IC50 was above 500 µM. In turn, `CCOC(=O)c1ccc(OC(=O)P(=O)(OC)OC)cc1` [4-(ethoxycarbonyl)phenyl dimethoxyphosphinecarboxylate oxide] yielded an IC50 above 500 µM. `Cc1cccc(C)c1OP(=O)(O)C(=O)O` [disodium (2,6-dimethylphenoxy)(oxido)phosphinecarboxylate oxide] displayed an IC50 above 500 µM.

For `CCOC(=O)c1ccc(OC(=O)P(=O)(O)O)cc1` [disodium [4-(ethoxycarbonyl)phenoxy]carbonylphosphonate], the IC50 was above 500 µM. As for `O=C(OCC1CCCC1)P(=O)(O)O` [disodium (cyclopentylmethoxy)carbonylphosphonate], the IC50 was above 500 µM.

Regarding `CCOP(=O)(OCC)C(=O)Oc1ccc(OC)cc1` [4-methoxyphenyl diethoxyphosphinecarboxylate oxide], the IC50 was above 500 µM. In the case of `CCOP(=O)(O)C(=O)O` [disodium ethoxy(oxido)phosphinecarboxylate oxide] it was above 500 µM. In the case of `COP(=O)(O)C(=O)O` [disodium methoxy(oxido)phosphinecarboxylate oxide] it was above 500 µM. With `COC(=O)P(=O)(O)Oc1c(C)cccc1C` [sodium 2,6-dimethylphenyl methoxycarbonylphosphonate] the figure was above 500 µM. In turn, `Cc1ccc(OP(=O)(O)C(=O)O)cc1` [disodium (4-methylphenoxy)(oxido)phosphinecarboxylate oxide] came in with an IC50 of 87 µM. Compound `Cc1ccc(OC(=O)P(=O)(O)O)cc1` [disodium (4-methylphenoxy)carbonylphosphonate] returned an IC50 above 500 µM. Take `O=C(O)P(=O)(O)OC12CC3CC(CC(C3)C1)C2` [disodium (1-adamantyloxy)(oxido)phosphinecarboxylate oxide]: the IC50 is above 500 µM.

Turning to `CCOC(=O)c1ccc(OC(=O)P(=O)(OCC)OCC)cc1` [4-(ethoxycarbonyl)phenyl diethoxyphosphinecarboxylate oxide], the IC50 was above 500 µM. With `COC(=O)P(=O)(O)Oc1ccc2c(c1)CCC2` [sodium 2,3-dihydro-1H-inden-5-yl methoxycarbonylphosphonate] the figure was above 500 µM. Compound `O=C(OC1CCCCC1)P(=O)(O)O` [disodium (cyclohexyloxy)carbonylphosphonate] gave an IC50 above 500 µM. For `CC(C)OC(=O)P(=O)(O)O` [disodium isopropoxycarbonylphosphonate], the 50% inhibitory concentration (IC50) was above 500 µM.

`CC(C)OP(=O)(OC(C)C)C(=O)Oc1ccc([N+](=O)[O-])cc1` [4-nitrophenyl diisopropoxyphosphinecarboxylate oxide] came in with an IC50 above 500 µM. Consider `CCOC(=O)P(=O)(O)OCC` [sodium ethyl ethoxycarbonylphosphonate], for which the IC50 was above 500 µM.

Compound `O=C(O)P(=O)(O)Oc1ccc2c(c1)CCC2` [disodium (2,3-dihydro-1H-inden-5-yloxy)(oxido)phosphinecarboxylate oxide] gave an IC50 of 73 µM.

Consider `COP(=O)(OC)C(=O)OCc1ccccc1` [benzyl dimethoxyphosphinecarboxylate oxide], for which the concentration for half-maximal inhibition (IC50) was above 500 µM. `COP(=O)(OC)C(=O)Oc1ccc(Cl)c(Cl)c1` [3,4-dichlorophenyl dimethoxyphosphinecarboxylate oxide] came in with an IC50 above 500 µM. `CCOP(=O)(OCC)C(=O)Oc1ccc(Cl)cc1` [4-chlorophenyl diethoxyphosphinecarboxylate oxide] came in with an IC50 above 500 µM. As to `COP(=O)(OC)C(=O)Oc1ccccc1` [phenyl dimethoxyphosphinecarboxylate oxide], the IC50 was above 500 µM. Turning to `O=C(OCc1ccccc1)P(=O)(O)O` [disodium (benzyloxy)carbonylphosphonate], the IC50 is above 500 µM. With `COP(=O)(OC)C(=O)Oc1ccc(C)cc1` [4-methylphenyl dimethoxyphosphinecarboxylate oxide] the figure was above 500 µM; with `COP(=O)(OC)C(=O)Oc1ccc([N+](=O)[O-])cc1` [4-nitrophenyl dimethoxyphosphinecarboxylate oxide], above 500 µM; with `CCCCOP(=O)(OCCCC)C(=O)OC` [methyl dibutoxyphosphinecarboxylate oxide], above 500 µM. With `O=C(Oc1ccccc1)P(=O)(Oc1ccccc1)Oc1ccccc1` [phenyl diphenoxyphosphinecarboxylate oxide], the IC50 came out at 39 µM. Compound `Cc1ccc(OP(=O)(O)C(=O)Oc2ccccc2)cc1` [sodium 4-methylphenyl phenoxycarbonylphosphonate] registered an IC50 of 54 µM. `CCOP(=O)(O)C(=O)Oc1ccc(OC)cc1` [sodium ethyl (4-methoxyphenoxy)carbonylphosphonate] had an IC50 of 165 µM. With `COc1ccc(OC(=O)P(=O)(O)O)cc1` [disodium (4-methoxyphenoxy)carbonylphosphonate], the concentration for half-maximal inhibition (IC50) is above 500 µM. The compound `O=C(Oc1ccccc1)P(=O)(O)Oc1ccccc1` [sodium phenyl phenoxycarbonylphosphonate] yielded an IC50 of 52 µM.

As to `COP(=O)(OC)C(=O)OC1CCCCC1` [cyclohexyl dimethoxyphosphinecarboxylate oxide], the IC50 was above 500 µM. With `O=C(O)P(=O)(O)O` the figure was 74 µM; with `O=C(Oc1ccc(Cl)cc1)P(=O)(O)O` [disodium (4-chlorophenoxy)carbonylphosphonate], 250 µM; with `CCCCOP(=O)(O)C(=O)OC` [sodium butyl methoxycarbonylphosphonate], above 500 µM. With `COP(=O)(OC)C(=O)OC(C)C` [isopropyl dimethoxyphosphinecarboxylate oxide] the figure was above 500 µM; with `O=C(Oc1ccccc1)P(=O)(O)O` [disodium phenoxycarbonylphosphonate], above 500 µM; with `COP(=O)(O)C(=O)OCc1ccccc1` [sodium methyl (benzyloxy)carbonylphosphonate], above 500 µM.

`CCOP(=O)(Oc1ccc2c(c1)CCC2)C(=O)OC` (stereo not given) [methyl (2,3-dihydro-1H-inden-5-yloxy)(ethoxy)phosphinecarboxylate oxide] showed an IC50 above 500 µM.

For the compound `CCCCOC(=O)P(=O)(O)O` [disodium butoxycarbonylphosphonate], the IC50 was above 500 µM.

`COc1ccc(OP(=O)(O)C(=O)O)cc1` [disodium (4-methoxyphenoxy)(oxido)phosphinecarboxylate oxide] yielded an IC50 of 90 µM. In turn, `CCOP(=O)(Oc1ccc(C(C)=O)cc1)C(=O)OC` (stereo not given) [methyl (4-acetylphenoxy)(ethoxy)phosphinecarboxylate oxide] registered an IC50 above 500 µM. The compound `CCOP(=O)(O)C(=O)Oc1ccc(Cl)cc1` [sodium ethyl (4-chlorophenoxy)carbonylphosphonate] showed an IC50 of 500 µM.

Take `O=C(O)P(=O)(O)Oc1ccccc1` [disodium oxido(phenoxy)phosphinecarboxylate oxide]: it took 79 µM to reach half-maximal inhibition (IC50). For the compound `CCCCOC(=O)P(=O)(OC)OC` [butyl dimethoxyphosphinecarboxylate oxide], the IC50 is above 500 µM. Turning to `COP(=O)(O)C(=O)Oc1ccccc1` [sodium methyl phenoxycarbonylphosphonate], the IC50 is above 500 µM. For the compound `COC(=O)P(=O)(OC)OC12CC3CC(CC(C3)C1)C2` (stereo not given) [methyl (1-adamantyloxy)(methoxy)phosphinecarboxylate oxide], the IC50 is above 500 µM.
